Data taken from patent US20240279202A1 (NURIX THERAPEUTICS, INC., priority 2021, published 2024).

Biological target: T1, ITK (Homo sapiens, UniProt Q08881)
T1 sequence (Q08881 1-620): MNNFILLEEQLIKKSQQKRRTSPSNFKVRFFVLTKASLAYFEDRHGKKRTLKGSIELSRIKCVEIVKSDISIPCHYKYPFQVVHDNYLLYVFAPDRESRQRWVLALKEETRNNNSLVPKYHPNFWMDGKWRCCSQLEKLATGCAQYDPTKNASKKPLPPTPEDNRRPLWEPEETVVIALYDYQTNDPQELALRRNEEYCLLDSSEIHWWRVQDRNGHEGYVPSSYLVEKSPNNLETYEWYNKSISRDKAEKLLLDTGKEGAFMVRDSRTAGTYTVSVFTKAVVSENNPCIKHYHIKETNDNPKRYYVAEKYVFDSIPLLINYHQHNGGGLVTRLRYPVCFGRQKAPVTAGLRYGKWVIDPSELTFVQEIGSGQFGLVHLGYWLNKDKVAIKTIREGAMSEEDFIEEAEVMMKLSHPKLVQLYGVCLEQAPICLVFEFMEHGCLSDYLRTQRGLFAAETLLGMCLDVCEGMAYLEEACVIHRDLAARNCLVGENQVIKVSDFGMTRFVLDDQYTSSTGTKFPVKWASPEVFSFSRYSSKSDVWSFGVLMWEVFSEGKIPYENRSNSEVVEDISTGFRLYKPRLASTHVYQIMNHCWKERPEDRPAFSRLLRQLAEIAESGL
Test: ITK degradation HiBiT assay
Type: cell-based
Set-up: expressed in transfected cells; host or cells: Molt4 (ATCC CRL-1552), monoclonal clone 1C10, engineered to carry the HiBiT tag
Conditions: 4 hrs; for Dmax: MOLT-4, C-terminal HiBiT-tagged Molt4 cells; for DC50: C-terminal HiBiT-tagged Molt4 cells
Experimental: Itk Degradation Hibit Assay
Compounds provided herein were assayed in vitro with ITK HiBit cell lines. Compound dilution series (11-point, 5 fold dilutions in DMSO, columns 2-12 with replicate in rows A/B, C/D, E/F, G,H at 2000× the final required concentrations were prepared in 96 well plates (Falcon, cat. no. 353077). Column 1, rows A-H were control DMSO. The 2000× solutions ranged from 2 mM to 1.024 nM (final assay concentration range 1 μM to […]). The 2000× solutions were added to cells in […], for a final DMSO concentration of 0.5% and final assay compound concentration of 1×. For the cells, C-terminal HiBiT-tagged Molt4 cells (ATCC CRL-1552, monoclonal cell line clone 1C10) were plated at 1×10^6 cells/mL, 100 μL/well ([…]) in complete RPMI (10% FBS, 1% L-glutamine). The cells were incubated with compound 10 and compound 17 for 4 hrs at […]/6% CO2.
Following incubation, 100 μL of complete Nano-Glo HiBiT Lytic Detection Reagent (Nano-Glo HiBiT Lytic Buffer with 1:50 Nano-Glo HiBiT Lytic Substrate and 1:100 LgBiT Protein; Promega cat. no. N3040) was added. Cells were further incubated for 10 min at room temperature (RT). Luminescence units (LU) were read on an EnVision plate reader (Perkin Elmer, 0.1 sec per well). Percent ITK remaining per sample was calculated as follows: […]
Using Graphpad Prism, % ITK remaining values were plotted as a function of compound concentration. To determine DC50 and Dmax values, resulting curves were fit to the Prism curve-fitting equation “log(inhibitor) vs response—Variable slope (four parameters)” (reported best fit value IC50 used as DC50). ITK was measured with antibody-based MSD (Meso-Scale Discovery) assays shown below.

| Structure (SMILES) | Dmax | DC50 |
| --- | --- | --- |
| CC1(C)CCc2c(-c3cc4ccc(C(=O)N5CCC(CN6CCc7cc(C8CCC(=O)NC8=O)ccc7C6)CC5)cc4[nH]3)n[nH]c2C1 (stereo not drawn) [Compound 193] | 85% |  |
| C[C@@]12Cc3[nH]nc(C(=O)Nc4cnn(C5CCC(CN6CCN(c7ccc(C8CCC(=O)NC8=O)cc7)CC6)CC5)c4)c3C[C@@H]1C2(F)F (mixture of isomers) [Compound 126, (4aS,5aR)-5,5-difluoro-5a-methyl-N-{1-[(1rs,4rs)-4-[(4-{4-[(3RS)-2,6-dioxopiperidin-3-yl]phenyl}piperazin-1-yl)methyl]cyclohexyl]-1H-pyrazol-4-yl}-1H,4H,4aH,5H,5aH,6H-cyclopropa[f]indazole-3-carboxamide] | 91% | 1.4 nM |
| C[C@@]12Cc3[nH]nc(C(=O)Nc4cnn(C5CCN(CC6CCN(c7ncc(C8CCC(=O)NC8=O)cn7)CC6)CC5)c4)c3C[C@@H]1C2(F)F (mixture of isomers) [Compound 115, (4aS,5aR)-N-(1-{1-[(1-{5-[(3RS)-2,6-dioxopiperidin-3-yl]pyrimidin-2-yl}piperidin-4-yl)methyl]piperidin-4-yl}-1H-pyrazol-4-yl)-5,5-difluoro-5a-methyl-1H,4H,4aH,5H,5aH,6H-cyclopropa[f]indazole-3-carboxamide] | 84% | 0.391 nM |
| C[C@@]12Cc3[nH]nc(-c4cc5ccc(C(=O)N6CCN(CC7CCN(c8ccc(C(=O)N[C@H]9CCC(=O)NC9=O)nc8)CC7)CC6)cc5[nH]4)c3C[C@@H]1C2(F)F [Compound 139, 5-(4-((4-(2-((4aS,5aR)-5,5-difluoro-5a-methyl-1,4,4a,5,5a,6-hexahydrocyclopropa[f]indazol-3-yl)-1H-indole-6-carbonyl)piperazin-1-yl)methyl)piperidin-1-yl)-N—((S)-2,6-dioxopiperidin-3-yl)picolinamide] | 81% | 0.8 nM |
| C[C@H]1CN(C(=O)c2ccc3cc(-c4n[nH]c5c4CCC(C)(C)C5)[nH]c3c2)CCN1CC1CCN(c2ccc(C3CCC(=O)NC3=O)cn2)CC1 (stereo partly drawn) [Compound 131, 3-(6-(4-(((S)-4-(2-(6,6-dimethyl-4,5,6,7-tetrahydro-1H-indazol-3-yl)-1H-indole-6-carbonyl)-2-methylpiperazin-1-yl)methyl)piperidin-1-yl)pyridin-3-yl)piperidine-2,6-dione] | 84% | 0.5 nM |
| C[C@H]1CN(c2ccc(C3CCC(=O)NC3=O)cn2)CCN1CC1CCN(C(=O)c2ccc3cc(-c4n[nH]c5c4CCC(C)(C)C5)[nH]c3c2)CC1 (stereo partly drawn) [Compound 190] | 86% |  |
| C[C@@]12Cc3[nH]nc(-c4cc5cc(C(=O)N6CCN(C[C@H]7CCN(c8ccc(C9CCC(=O)NC9=O)cc8)C7)CC6)ccc5[nH]4)c3C[C@@H]1C2(F)F (stereo partly drawn) [Compound 147] | 81% |  |
| CC1(C)CCc2c(-c3cc4ccc(C(=O)N5CCC(CN6CCCN(c7ccc(C8CCC(=O)NC8=O)cn7)CC6)CC5)cc4[nH]3)n[nH]c2C1 (stereo not drawn) [Compound 191] | 78% |  |
| C[C@@]12Cc3[nH]nc(-c4cc5cc(C(=O)N6CCN(C[C@@H]7CCN(c8ccc(C9CCC(=O)NC9=O)cc8)C7)CC6)ccc5[nH]4)c3C[C@@H]1C2(F)F (stereo partly drawn) [Compound 143] | 81% |  |
| C[C@@]12Cc3[nH]nc(-c4cc5cc(C(=O)N6CCN(CC7CCN(c8ccc(C(=O)N[C@H]9CCC(=O)NC9=O)nc8)CC7)CC6)ccc5[nH]4)c3C[C@@H]1C2(F)F [Compound 142] | 80% |  |
| CC1(C)CCc2c(C(=O)Nc3cnn([C@H]4CC[C@H](C(=O)N5CCN(c6ccc(C7CCC(=O)NC7=O)cn6)CC5)CC4)c3)n[nH]c2C1 (mixture of isomers) [Compound 175] | 65% |  |
| C[C@@]12Cc3[nH]nc(-c4cc5ccc(C(=O)N6CCN(CC7CCN(c8ccc(C9CCC(=O)NC9=O)cc8)CC7)CC6)cc5[nH]4)c3C[C@@H]1C2 (mixture of isomers) [Compound 225, (3RS)-3-(4-{4-[(4-{2-[(4aS,5aR)-5a-Methyl-1H,4H,4aH,5H,6H-cyclopropa[f]indazol-3-yl]-1H-indole-6-carbonyl}piperazin-1-yl)methyl]piperidin-1-yl}phenyl)piperidine-2,6-dione] | 84% | 8.5 nM |
| C[C@@H](C(=O)N(C)c1ccc2cc(-c3n[nH]c4c3C[C@@H]3C(F)(F)[C@]3(C)C4)[nH]c2c1)N1CCN(CC2CCN(c3cc(C4CCC(=O)NC4=O)ccn3)CC2)CC1 (stereo partly drawn) [Compound 23, (2S)—N-(2-((4aS,5aR)-5,5-difluoro-5a-methyl-1,4,4a,5,5a,6-hexahydrocyclopropa[f]indazol-3-yl)-1H-indol-6-yl)-2-(4-((1-(4-(2,6-dioxopiperidin-3-yl)pyridin-2-yl)piperidin-4-yl)methyl)piperazin-1-yl)-N-methylpropanamide] | 82% | < 0.001 nM |
| C[C@@]12Cc3[nH]nc(C(=O)Nc4cnn(CC5CCN(C(=O)C6CCN(c7ccc(C8CCC(=O)NC8=O)cc7)CC6)CC5)c4)c3C[C@@H]1C2(F)F (mixture of isomers) [Compound 173] | 87% |  |
| CC1(C)CCc2c(C(=O)Nc3cnn(C4CCN(CC5CCN(c6ccc([C@@H]7CCC(=O)NC7=O)cc6)CC5)CC4)c3)n[nH]c2C1 [Compound 121, N-(1-{1-[(1-{4-[(3S)-2,6-dioxopiperidin-3-yl]phenyl}piperidin-4-yl)methyl]piperidin-4-yl}-1H-pyrazol-4-yl)-6,6-dimethyl-4,5,6,7-tetrahydro-1H-indazole-3-carboxamide] | 76% | 2.03 nM |
| Cn1c(=O)n(C2CCC(=O)NC2=O)c2cccc(N3CCC(C(=O)N4CCC(n5cc(NC(=O)c6n[nH]c7c6C[C@@H]6C(F)(F)[C@]6(C)C7)cn5)CC4)CC3)c21 (mixture of isomers) [Compound 171] | 88% |  |
| C[C@@]12Cc3[nH]nc(C(=O)Nc4cnn([C@H]5CCN(CC6CCN(c7ccc(C(=O)N[C@H]8CCC(=O)NC8=O)nc7)CC6)C[C@@H]5F)c4)c3C[C@@H]1C2(F)F [Compound 93, (4aS,5aR)-N-(1-((3S,4S)-1-((1-(6-(((S)-2,6-dioxopiperidin-3-yl)carbamoyl)pyridin-3-yl)piperidin-4-yl)methyl)-3-fluoropiperidin-4-yl)-1H-pyrazol-4-yl)-5,5-difluoro-5a-methyl-1,4,4a,5,5a,6-hexahydrocyclopropa[f]indazole-3-carboxamide] | 97% | 1.9 nM |
| C[C@@]12Cc3[nH]nc(C(=O)Nc4cnn(C5CCC(CN6CCC(Oc7ccc(C8CCC(=O)NC8=O)cn7)CC6)CC5)c4)c3C[C@@H]1C2(F)F (stereo partly drawn) [Compound 124, (4aS,5aR)-5,5-difluoro-5a-methyl-N-{1-[(1rs,4rs)-4-{[4-({5-[(3R)-2,6-dioxopiperidin-3-yl]pyridin-2-yl}oxy)piperidin-1-yl]methyl}cyclohexyl]-1H-pyrazol-4-yl}-1H,4H,4aH,5H,5aH,6H-cyclopropa[f]indazole-3-carboxamide] | 90% | 3.7 nM |
| C[C@@]12Cc3[nH]nc(C(=O)Nc4ccc(C5CCN(CC6CCN(c7ccc(C8CCC(=O)NC8=O)cc7)CC6)CC5)cc4)c3C[C@@H]1C2(F)F (stereo partly drawn) [Compound 108, (4aS,5aR)-N-(4-(1-((1-(4-(2,6-dioxopiperidin-3-yl)phenyl)piperidin-4-yl)methyl)piperidin-4-yl)phenyl)-5,5-difluoro-5a-methyl-1,4,4a,5,5a,6-hexahydrocyclopropa[f]indazole-3-carboxamide] | 88% | 1.8 nM |
| CN(C(=O)C1CCN(CC2CCN(c3ccc(C4CCC(=O)NC4=O)cn3)CC2)CC1)c1ccc2cc(-c3n[nH]c4c3C[C@@H]3C(F)(F)[C@]3(C)C4)[nH]c2c1 (stereo partly drawn) [Compound 74, N-(2-((4aS,5aR)-5,5-difluoro-5a-methyl-1,4,4a,5,5a,6-hexahydrocyclopropa[f]indazol-3-yl)-1H-indol-6-yl)-1-((1-(5-(2,6-dioxopiperidin-3-yl)pyridin-2-yl)piperidin-4-yl)methyl)-N-methylpiperidine-4-carboxamide] |  | 10.5 nM |
